Test results taken from patent publication US7098195B2, “Fluorinated glucosamine analogs useful for modulating post-translational glycosylations on cells” (Health Research, Inc., priority 2001, dated 2006).
Marks after values point to notes of the source that are not given here.

How the values were obtained:
[1] = tested on: L-selectin ligand activity of human CLA+ T-cells; assay: Parallel-plate flow chamber, CLA+ T-cell rolling on L-selectin chimera; assay type: cell-based; conditions: 0.1% for 1 h at 37° C.
Protocol: (§1) Tethering and rolling of human T-cells on recombinant human E- and P-selectin-Ig chimera (provided by Dr. Robert Fuhlbrigge, Harvard Medical School) and human L-selectin-Ig (gift from Dr. Ray Camphausen, Wyeth/Genetics Institute, Inc., Cambridge, Mass.) were analyzed in the parallel-plate flow chamber under physiologic shear stress conditions (3). To prepare E- and P-selectin-Ig chimera spots, protein A (300 μg/15 μl 0.1M NaHCO3) was adsorbed to Ten-twenty-nine™ Petri dishes for 2 h at 37° C. Human serum albumin ([…] PBS) then added and incubated for 2 h at 37° C. to block non-specific binding sites. E-selectin-Ig (50 ng/50 μl PBS) or P-selectin-Ig (50 ng/50 μl PBS) solutions was pipetted directly over the pre-existing protein A spots for 18 h at 4° C. To prepare L-selectin-Ig spots, L-selectin-Ig (300 ng/15 μl PBS) or isotype control human IgG (300 ng/15 μl) were adsorbed directly to plastic (non-protein A-coated) for 18 h at 4° C. and blocked in 100% FBS for 2 h at 4° C.
(§2) CLA^+ T-cells or freshly isolated PBL were treated with neuraminidase and metabolic glycosylation inhibitors or with protease (bromelain) as described above, washed twice in HBSS, suspended at 2×10^6/ml in HBSS/10 mM HEPES/2 mM CaCl2 (H/H/Ca^++) and infused into the chamber over selectin chimeras. Protease treatment was performed to control for residual E-selectin activity not attributable to the expression of CLA on a protein scaffold. Cell tethering was permitted at 0.6 dynes/cm^2 for 1 min, then stepwise increments in shear stress every 15 sec were employed to a final shear stress level of 60 dynes/cm^2. The number of cells rolling/viewing field (at 100× magnification) was quantified at each level of shear stress in triplicates for a minimum of three experiments. […] Negative control experiments were performed in parallel, wherein cell binding was examined in H/H adhesion assay medium containing 5 mM EDTA as well as assaying cell binding to human IgG isotype control.
(§3) Utilizing the parallel-plate flow chamber under physiologic shear stress conditions, E-, P- and L-selectin ligand activities of human CLA^+ T-cells treated were analyzed in an identical manner as cells prepared for Western blotting and autoradiography studies.

[2] = tested on: E-selectin ligand activity of CLA+ T-lymphocytes; assay: Parallel-plate flow chamber, CLA+ T-cell tethering and rolling on E-selectin chimera; assay type: cell-based, human; conditions: 0.1% for 1 h at 37° C.
Protocol: (§4) To analyze the affects of 4-F-GlcNAc on the function of CLA on human T-cells, we examined the ability of 4-F-GlcNAc-treated (0.05, 0.1, 0.5 mM for 30 hrs) CLA-+ T-cells cultures to engage with immobilized E- and P-selectin chimera in the parallel-plate flow chamber. As described for flow cytometric analyses (Example 13), cells were first pretreated with neuraminidase to remove terminal sialic acid residues required for HECA-452 reactivity and for E- and P-selectin ligand activity of CLA. This approach allowed for the assessment on de novo synthesized CLA molecules.
as §1, §2, §3

[3] = tested on: P-selectin ligand activity of CLA+ T-lymphocytes; assay: Parallel-plate flow chamber, CLA+ T-cell tethering and rolling on P-selectin chimera; assay type: cell-based, human; conditions: 0.1% for 1 h at 37° C.
Protocol: as §4, §1, §2, §3

HECA-452 epitopes = assay: Flow cytometric analysis of HECA-452 epitopes on human T-lymphocytes; assay type: cell-based
Protocol: Only positive cells, which were those cells with fluorescence above background autofluorescence and fluorochrome-conjugated secondary Ab staining, were analyzed.
For analysis of CLA expression on T-cells treated with glycoconjugate modifiers, CLA^+ T-cells were first pretreated with neuraminidase (0.1 U/ml at 37° C. for 1 h) to eliminate functional CLA and cleave all HECA-452 reactive epitopes from the cell surface (35–38). Since we wanted to investigate whether these compounds directly affected CLA expression and function, neuraminidase pretreatment followed by incubations with glycosylation modifiers allowed for examination of de novo synthesized CLA/HECA-452 epitopes re-expressed on the cell surface. After neuraminidase digestion, cells were then incubated with tunicamycin (0.02 mM) (an inhibitor of GlcNAc phosphotransferase, the initial step of N-glycosylation), swainsonine (0.23 mM) (an inhibitor of α-mannosidase II and complex-type N-glycosylation), 4-F-GlcNAc (0.05 mM) (putative inhibitor of poly-N-acetyllactosamine biosynthesis), BAG (an inhibitor of O-glycan biosynthesis) (<2 mM) or GlcNAc (5 mM) (negative control, naturally-occurring metabolic counterpart of 4-F-GlcNAc)for 30 h in the presence of human recombinant IL-2. […] Concentrations for BAG were selected based on maximal O-glycosylation inhibitory effects at non-growth inhibitory concentrations as previously reported (39). To determine a suitable concentration of 4-F-GlcNAc for examining glycoconjugate-modifying effects without influencing cell growth or protein synthesis, we performed preliminary growth inhibitory experiments of cells incubated with 4-F-GlcNAc for 2 cell doublings (˜36 h) at 37° C. (cell viability assessed by Trypan-blue exclusion).
Flow cytometric analysis was performed on human leukocytes utilizing both direct and indirect immunofluorescence staining approaches. All cells utilized for these experiments were washed twice with cold PBS/2%FBS and suspended at 10^7/ml PBS/1% FBS. Primary antibodies, anti-CLA (HECA-452), -CD4, -CD8, CD43 (L60) and PSGL-1 (PL-2) along with the appropriate isotype-matched control antibodies were incubated with the cells for 30 min on ice. Following two washes with PBS/2%FBS, cells were resuspended in PBS/1%FBS and fluorochrome-conjugated secondary antibodies (2 μl) and incubated for 30 min on ice.

[4] = tested on: E-selectin ligand activity of murine Th1 cells; assay: Flow chamber analysis of E-selectin binding on murine Th1 cells; assay type: cell-based, mouse; conditions: neuraminidase treatment alone (0.1 U/ml for 1 hr at 37° C.)
From the text: (§5) CD4+ splenocytes were isolated from C57BL-6 mice by anti-murine CD4 L3T4 magnetic bead technology (Miltenyi Biotec) according to manufacturer's protocol. […] Culturing murine T helper cells in the presence of murine IL-12 and anti-murine IL-4 produces selectin binding Th1 cells by up-regulating FucTVII (69, 70) and core 2 enzyme (43–45, 71, 72), both critical for selectin ligand synthesis (i.e. decoration of PSGL-1 (67, 68)), and prevents the production of non-selectin binding Th2 cells (67–72). Th1 cells were also generated from mice deficient in α1,3 fucosyltransferase, FucTVII, and served as negative controls (33, 38, 40). Cells were harvested and re-plated at 2×10^6cells/ml on non-Ab coated plastic with murine IL-2 (20 ng/ml) in the presence or absence of murine IL-12 (10 ng/ml) and anti-murine IL-4 moAb 11B11 (10 μg/ml) for 48 h. […] Glycosylation inhibitors were added to cultures on day 6.5 for 30 hr, after first treating cells with neuraminidase (0.1 U/ml for 1 hr at 37° C.) to remove all cell surface terminal sialic acid resides and E and P-selectin ligand activity. Since selectin ligands are dependent on terminal sialic acid (α2,3 N-acetylneuraminic acid) for activity, this approach allowed for analysis of de novo synthesized selectin ligands in the presence of 0.05 mM 4-F-GlcNAc, N-glycan inhibitors, 0.23 mM swainsonine and 0.02 mM tunicamycin, and 1 mM GlcNAc (negative control).

[5] = tested on: CD44 on human hematopoietic KG1a cells; assay: Flow cytometric analysis of CD44 on KG1a cells; assay type: cell-based; conditions: KG1a, neuraminidase (1 hr)
From the text: (§6) In a similar set of experiments, we analyzed the effects of 4-F-GlcNAc on selectin ligand expression and function on the human hematopoietic cell line KGla. KGla cells express a distinct HECA-452-reactive CD44 glycoform that functions as both an E- and L-selectin ligand (Dimitroff, C. J. et al. (2001) J. Cell Biol., 53: 1277–1286; Dimitroff, C. J. et al. (2000) Proc. Nat. Acad. Sci., 97(25):13841–46; Sackstein, R. and Dimitroff, C. J. (2000) Blood, 96: 2765–74.), otherwise known as HCELL, respectively. This specialized glycoform represents a major E-selectin and the primary L-selectin ligand on normal CD34+ HPCs and on leukemic cells, and, therefore, is also implicated in the BM homing aspects and growth-related activities of HPCs in vivo, respectively (Id.). We first performed flow cytometric analysis of HECA-452 antigen and CD44 on 4-F-GlcNAc-treated KGla cells. […] Only positive cells, which were those cells with fluorescence above background autofluorescence and fluorochrome-conjugated secondary Ab staining, were analyzed.
(§7) Flow cytometric analysis was performed on human leukocytes utilizing both direct and indirect immunofluorescence staining approaches. All cells utilized for these experiments were washed twice with cold PBS/2%FBS and suspended at 10^7/ml PBS/1% FBS. Primary antibodies, anti-CLA (HECA-452), -CD4, -CD8, CD43 (L60) and PSGL-1 (PL-2) along with the appropriate isotype-matched control antibodies were incubated with the cells for 30 min on ice. Following two washes with PBS/2%FBS, cells were resuspended in PBS/1%FBS and fluorochrome-conjugated secondary antibodies (2 μl) and incubated for 30 min on ice. Cells were washed twice with PBS/2%FBS, resuspended in PBS and flow cytometry was performed on a FACScan apparatus equipped with an argon laser tuned at 488 nm (Becton Dickinson).

[6] = tested on: HECA-452 epitopes on human hematopoietic KG1a cells; assay: Flow cytometric analysis of HECA-452 epitopes on KG1a cells; assay type: cell-based; conditions: KG1a, neuraminidase (1 hr)
From the text: as §6, §7

[7] = tested on: P-selectin ligand activity of murine Th1 cells; assay: Flow chamber analysis of P-selectin binding on murine Th1 cells; assay type: cell-based, mouse; conditions: neuraminidase treatment alone (0.1 U/ml for 1 hr at 37° C.)
From the text: as §5

[8] = tested on: HCELL/CD44 activity on human hematopoietic KG1a cells; assay: Stamper-Woodruff adhesion assay, L-selectin-dependent lymphocyte adherence to KG1a cells; assay type: cell-based; conditions: KG1a, neuraminidase (1 hr)
From the text: To study the effects of 4-F-GlcNAc on the function of the L-selectin binding activity of CD44 (HCELL), we employed the shear-based, Stamper-Woodruff adhesion assay to examine the ability of 4-F-GlcNAc-treated KG1a cells to support L-selectin-dependent lymphocyte adherence. This assay is utilized to specifically assess the shear-dependent binding interactions between L-selectin naturally expressed on lymphocytes and HCELL expressed on KG1a cells (Dimitroff, C. J. et al. (2000) Proc. Nat. Acad. Sci., 97(25):13841–46; Sackstein, R. and Dimitroff, C. J. (2000) Blood, 96: 2765–74.). Before treating KG1a cells with 0.05, 0.1 or 0.5 mM 4-F-GlcNAc, we first pretreated KG1a cells with Vibrio cholerae neuraminidase (0.1 U/ml for 1 hr at 37° C.) to cleave all terminal α2,3 sialic acid-bearing residues and eliminate all HCELL activity. Glutaraldehyde-fixed monolayers of KG1a cells that were first treated with Vibrio cholerae neuraminidase (0.1 U/ml for 1 hr at 37° C.) then re-cultured in the presence of 4-F-GlcNAc (0.05–0.5 mM) for 30 hr at 37° C. Metabolic inhibitors swainsonine, an inhibitor of α-mannosidase II, tunicamycin, an inhibitor of N-acetylglucosamine phosphototransferase, were also utilized to compare the relative potencies of known glycosylation inhibitors. Human peripheral blood lymphocytes (5×10^6cells/ml RPMI1640 w/o NaBicarbonate/5%FBS) were overlayed onto KG1a monolayers at 80 rpm for 30 min. at 4° C., and after gently washing in PBS, lymphocytes bound to cell monolayers were fixed in 3% glutaraldehyde. Re-expression of HCELL activity or HECA-452-reactive CD44 on KG1a cells was determined after […] of 4-F-GlcNAc treatment. Bound lymphocytes were quantified at 100× magnification from a minimum of 5 fields from 2 slides, and the mean number of lymphocytes (standard error of the mean) was calculated.

In the case of bromelain, the L-selectin ligand activity [1] is reported as “completely eliminated”, the “remaining E-selectin ligand activity” value [2] is reported as < 25 % of control and the P-selectin ligand activity [3] is reported as “completely eliminated”. For the same substance, the “HECA-452 expression by flow cytometry” value (HECA-452 epitopes; CLA^low T-cells or PBL after bromelain digestion) was “relatively unchanged”.

“neuraminidase: Vibrio cholerae neuraminidase, cleaves terminal sialic acid residues” was tested, and the “E-selectin ligand activity of Th1 cells” value [4] was “decreased E and P-selectin ligand activity to baseline levels”, the “CD44 % Positive Cell Staining” value [5] was 100% and the “HECA-452 Mean Channel Fluorescence” value [6] was 43. For the same substance, the “P-selectin ligand activity of Th1 cells” value [7] was “decreased E and P-selectin ligand activity to baseline levels”, the “% Inhibition (lymphocyte binding)” value [8] was 98* % and the “Mean Lymphocyte Binding” value [8] was 4.2. The “HECA-452 Mean Channel Fluorescence” value (HECA-452 epitopes; CLA+ T-cells, neuraminidase (1 hr)) was 27.
